Data: ChEMBL document CHEMBL1140217, “Prolyl oligopeptidase inhibition by N-acyl-pro-pyrrolidine-type molecules” (J Med Chem, 2008)

Target: T1, Prolyl endopeptidase (Rattus norvegicus, UniProt O70196)
T1 sequence (O70196 whole entry): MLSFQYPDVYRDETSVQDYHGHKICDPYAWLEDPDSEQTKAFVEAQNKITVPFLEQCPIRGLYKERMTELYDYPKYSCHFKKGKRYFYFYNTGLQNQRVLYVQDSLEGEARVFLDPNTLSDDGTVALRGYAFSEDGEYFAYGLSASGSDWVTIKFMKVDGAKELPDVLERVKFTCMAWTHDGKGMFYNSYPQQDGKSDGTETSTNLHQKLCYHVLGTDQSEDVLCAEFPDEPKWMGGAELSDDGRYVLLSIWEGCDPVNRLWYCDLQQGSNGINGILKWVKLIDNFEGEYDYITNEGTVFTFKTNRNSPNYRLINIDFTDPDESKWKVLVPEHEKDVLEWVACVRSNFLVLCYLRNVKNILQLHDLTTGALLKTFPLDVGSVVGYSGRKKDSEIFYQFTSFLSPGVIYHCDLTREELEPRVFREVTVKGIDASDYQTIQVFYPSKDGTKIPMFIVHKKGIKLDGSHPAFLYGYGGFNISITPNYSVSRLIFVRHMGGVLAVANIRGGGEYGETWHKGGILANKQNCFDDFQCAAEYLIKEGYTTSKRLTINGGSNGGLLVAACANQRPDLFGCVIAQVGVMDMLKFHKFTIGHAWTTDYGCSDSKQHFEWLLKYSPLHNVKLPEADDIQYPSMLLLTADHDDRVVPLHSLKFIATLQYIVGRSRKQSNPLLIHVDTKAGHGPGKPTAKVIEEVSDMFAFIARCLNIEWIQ
Assay: Inhibition of POP in Sprague-Dawley rat brain homogenates
Type: tissue-based

| IC50 | Structure (SMILES) |
| --- | --- |
| 0.059 µM | O=C([C@@H]1CCCN1C(=O)CCCn1c(=O)c(-c2ccccc2)nc2ccccc21)N1CCCC1 |
| 0.04 µM | O=C([C@@H]1CCCN1C(=O)CCCN1C(=O)c2ccccc2C1=O)N1CCCC1 |
| 0.048 µM | CCCCCCCC(=O)N1CCC[C@H]1C(=O)N1CCCC1 |
| 0.003 µM | O=C([C@@H]1CCCN1C(=O)CCN1C(=O)c2ccccc2C1=O)N1CCCC1 |
